PubChem BioAssay AID192 (DTP/NCI, 2004)
“And” between values parts separate entries of the source, which are not always exact repeats. Equal values may be shown once. Toxic doses and inconclusive results are not listed. Rule for the calls: active = survival T/C of 150% or more; inactive = T/C below 125% in these data.

Test system: BDF1 mice, B16 melanoma ip, median survival T/C
Experiment: NCI In Vivo Anticancer Drug Screen. Data for tumor model B16 Melanoma (intraperitoneal) in B6D2F1 (BDF1) mice
Conditions: endpoint: median survival time, higher = longer survival
Outline: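 Mice with transplantable tumors; drug vs vehicle groups; endpoint survival or tumor size; value = T/C.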

[1] = dose: 6.25 mg/kg/injection, schedule: Q01DX009 (ip), vehicle: Klucel (hydroxypropylcellulose) (HPC)
[2] = dose: 12.5 mg/kg/injection, schedule: Q01DX009 (ip), vehicle: Klucel (hydroxypropylcellulose) (HPC)
[3] = dose: 25.0 mg/kg/injection, schedule: Q01DX009 (ip), vehicle: Klucel (hydroxypropylcellulose) (HPC)
[4] = dose: 25.0 mg/kg/injection, schedule: Q01DX009 (ip), vehicle: saline
[5] = dose: 50.0 mg/kg/injection, schedule: Q01DX009 (ip), vehicle: saline
[6] = dose: 50.0 mg/kg/injection, schedule: Q01DX009 (ip), vehicle: Klucel (hydroxypropylcellulose) (HPC)
[7] = dose: 12.5 mg/kg/injection, schedule: Q01DX009 (ip), vehicle: saline with Tween-80
[8] = dose: 25.0 mg/kg/injection, schedule: Q01DX009 (ip), vehicle: saline with Tween-80
[9] = dose: 100.0 mg/kg/injection, schedule: Q01DX009 (ip), vehicle: Klucel (hydroxypropylcellulose) (HPC)
[10] = dose: 200.0 mg/kg/injection, schedule: Q01DX009 (ip), vehicle: Klucel (hydroxypropylcellulose) (HPC)
[11] = dose: 400.0 mg/kg/injection, schedule: Q01DX009 (ip), vehicle: Klucel (hydroxypropylcellulose) (HPC)
[12] = dose: 50.0 mg/kg/injection, schedule: Q01DX009 (ip), vehicle: saline with Tween-80
[13] = dose: 100.0 mg/kg/injection, schedule: Q01DX009 (ip), vehicle: saline with Tween-80
[14] = dose: 200.0 mg/kg/injection, schedule: Q01DX009 (ip), vehicle: saline with Tween-80
[15] = dose: 100.0 mg/kg/injection, schedule: Q04DX003 (ip), vehicle: saline with Tween-80
[16] = dose: 200.0 mg/kg/injection, schedule: Q04DX003 (ip), vehicle: saline with Tween-80
[17] = dose: 400.0 mg/kg/injection, schedule: Q04DX003 (ip), vehicle: saline with Tween-80

Measured: T/C

c1cc2ccc3ccc(C4CO4)c4ccc(c1)c2c34 (stereo unspecified)
inactive: dose: 3.12 mg/kg/injection, schedule: Q01DX009 (ip), vehicle: Klucel (hydroxypropylcellulose) (HPC) 95 % of control | [1] 96 % of control | [2] 100 % of control | [3] 86 % of control

N#Cc1cn(C2OC(CO)C(O)C2O)c2ncnc(N)c12 (stereo unspecified)
inactive: dose: 0.06 mg/kg/injection, schedule: Q01DX009 (ip), vehicle: saline 120 % of control | dose: 0.12 mg/kg/injection, schedule: Q01DX009 (ip), vehicle: saline 118 % of control | dose: 0.25 mg/kg/injection, schedule: Q01DX009 (ip), vehicle: saline 105 % of control

C[N+](C)(C)C1CC1
inactive: dose: 12.5 mg/kg/injection, schedule: Q01DX009 (ip), vehicle: saline 105 % of control | [4] 102 % of control | [5] 102 % of control

COc1cc2c(cc1Oc1c(Oc3c(O)c(OC)cc4c3C(CC(C)C)N(C)CC4)c(OC)cc3c1C(CC(C)C)N(C)CC3)C(CC(C)C)N(C)CC2 (stereo unspecified)
inactive: [2] 100 % of control | [3] 96 % of control | [6] 110 % of control

O=C(Nc1cc(Cl)ccc1Cl)c1ccc(Cl)cc1Cl
inactive: dose: 6.25 mg/kg/injection, schedule: Q01DX009 (ip), vehicle: saline with Tween-80 97 % of control | dose: 6.25 mg/kg/injection, schedule: Q04DX003 (ip), vehicle: saline with Tween-80 92 % of control | [7] 93 % of control | dose: 12.5 mg/kg/injection, schedule: Q04DX003 (ip), vehicle: saline with Tween-80 96 % of control | [8] 100 % of control | dose: 25.0 mg/kg/injection, schedule: Q04DX003 (ip), vehicle: saline with Tween-80 88 % of control

CCOC(=O)C1C(=O)CC(=O)C(C(=O)OCC)C1c1ccc(O)cc1 (stereo unspecified)
inactive: [9] 100 % of control | [10] 93 % of control | [11] 103 % of control

CC(C)=CCN1CCC2(C)c3cc(O)ccc3CC1C2C (stereo unspecified)
inactive: dose: 0.39 mg/kg/injection, schedule: Q01DX009 (ip), vehicle: Klucel (hydroxypropylcellulose) (HPC) 123 % of control | dose: 0.78 mg/kg/injection, schedule: Q01DX009 (ip), vehicle: Klucel (hydroxypropylcellulose) (HPC) 102 % of control | dose: 1.56 mg/kg/injection, schedule: Q01DX009 (ip), vehicle: Klucel (hydroxypropylcellulose) (HPC) 123 % of control | [1] 105 % of control

CCCCCCCCCC(=O)OCCN1CCN(CCCN2c3ccccc3Sc3ccc(C(F)(F)F)cc32)CC1
inactive: dose: 0.09 mg/kg/injection, schedule: Q01DX009 (ip), vehicle: alcohol 97 % of control | dose: 0.19 mg/kg/injection, schedule: Q01DX009 (ip), vehicle: alcohol 123 % of control | dose: 0.39 mg/kg/injection, schedule: Q01DX009 (ip), vehicle: alcohol 111 % of control

CCOc1ccc(NC(=O)C=O)cc1
inactive: [9] 100 % of control | [10] 90 % of control | [11] 90 % of control

CC1(C)N=C(N)N=C(N)N1c1ccc(Cl)cc1Cl
inactive: [2] 108 % of control | [3] 111 % of control | [6] 123 % of control

CCC(C)C(C(=O)OC1CCN(C)CC1)c1ccccc1 (stereo unspecified)
inactive: [4] 101 % of control | [5] 90 % of control

CC(=O)C(=O)C1=C2CCCN2CCc2cc3c(cc21)OCO3
inactive: dose: 12.5 mg/kg/injection, schedule: Q01DX009 (ip), vehicle: water 93 % of control | dose: 25.0 mg/kg/injection, schedule: Q01DX009 (ip), vehicle: water 98 % of control | dose: 50.0 mg/kg/injection, schedule: Q01DX009 (ip), vehicle: water 117 % of control | dose: 100.0 mg/kg/injection, schedule: Q01DX009 (ip), vehicle: water 89 % of control

CCCCNC(=O)Nc1cc(C)c(C)cc1C
inactive: dose: 50.0 mg/kg/injection, schedule: Q01DX009 (ip), vehicle: gum acacia 95 % of control | dose: 100.0 mg/kg/injection, schedule: Q01DX009 (ip), vehicle: gum acacia 99 % of control | dose: 200.0 mg/kg/injection, schedule: Q01DX009 (ip), vehicle: gum acacia 91 % of control

O=c1[nH]c2ccc(Br)cc2c(=O)o1
inactive: [8] 91 % of control | [12] 91 % of control | [13] 86 % of control and 88 % of control | [14] 86 % of control

CC(=O)OCC1OC(S[As](C)C)C(OC(C)=O)C(OC(C)=O)C1OC(C)=O (stereo unspecified)
inactive: [6] 107 % of control | [9] 96 % of control

COc1c(Br)c2c(c(OC)c1OC)-c1ccc(OC)c(=O)cc1C(NC(C)=O)CC2 (stereo unspecified)
inactive: dose: 0.38 mg/kg/injection, schedule: Q01DX009 (ip), vehicle: Klucel (hydroxypropylcellulose) (HPC) 113 % of control | dose: 0.75 mg/kg/injection, schedule: Q01DX009 (ip), vehicle: Klucel (hydroxypropylcellulose) (HPC) 115 % of control | dose: 1.5 mg/kg/injection, schedule: Q01DX009 (ip), vehicle: Klucel (hydroxypropylcellulose) (HPC) 112 % of control | dose: 3.0 mg/kg/injection, schedule: Q01DX009 (ip), vehicle: Klucel (hydroxypropylcellulose) (HPC) 118 % of control

CN1CCN(CCNc2ccc(CO)c3sc4ccccc4c(=O)c23)CC1
inactive: [3] 110 % of control | [6] 116 % of control

Cc1ccc2cc3c(ccc4ccccc43)c3c2c1CC3
inactive: [5] 124 % of control | [13] 120 % of control | [15] 110 % of control | [14] 114 % of control | [16] 110 % of control | [17] 115 % of control

CN(C)c1ccc(C(=C2C=CC(=[N+](C)C)C=C2)c2ccc(N(C)C)cc2)cc1 (tested in a mixture with another compound)
inactive: dose: 0.31 mg/kg/injection, schedule: Q01DX009 (ip), vehicle: saline with Tween-80 123 % of control | dose: 0.62 mg/kg/injection, schedule: Q01DX009 (ip), vehicle: saline with Tween-80 109 % of control | dose: 1.25 mg/kg/injection, schedule: Q01DX009 (ip), vehicle: saline with Tween-80 104 % of control | dose: 2.5 mg/kg/injection, schedule: Q01DX009 (ip), vehicle: saline with Tween-80 116 % of control

C=C1C(=O)OC2CC(C)C3C=CC(=O)C3CC12 (stereo unspecified)
inactive: dose: 0.5 mg/kg/injection, schedule: Q01DX009 (ip), vehicle: Klucel (hydroxypropylcellulose) (HPC) 101 % of control | dose: 1.0 mg/kg/injection, schedule: Q01DX009 (ip), vehicle: Klucel (hydroxypropylcellulose) (HPC) 109 % of control | dose: 2.0 mg/kg/injection, schedule: Q01DX009 (ip), vehicle: Klucel (hydroxypropylcellulose) (HPC) 101 % of control

CC(=O)OCC1OC(n2cnc3c(=S)nc[nH]c32)C(OC(C)=O)C1OC(C)=O (stereo unspecified)
inactive: dose: 50.0 mg/kg/injection, schedule: Q01DX009 (ip), vehicle: suspension in saline 114 % of control | dose: 100.0 mg/kg/injection, schedule: Q01DX009 (ip), vehicle: suspension in saline 109 % of control | [15] 106 % of control | [16] 100 % of control | [17] 91 % of control

O=c1ccc2ccccc2o1
inactive: [3] 100 % of control | [6] 105 % of control | [9] 111 % of control | [10] 101 % of control

CN(C)c1ccc(C=Nc2ccc3c(c2)Cc2ccccc2-3)cc1
inactive: [9] 106 % of control | [10] 93 % of control | [11] 90 % of control

Nc1ccc(C(=O)O)c(O)c1
inactive: dose: 9.3 mg/kg/injection, schedule: Q01DX009 (ip), vehicle: saline with Tween-80 98 % of control | dose: 18.7 mg/kg/injection, schedule: Q01DX009 (ip), vehicle: saline with Tween-80 99 % of control | dose: 37.5 mg/kg/injection, schedule: Q01DX009 (ip), vehicle: saline with Tween-80 98 % of control | dose: 75.0 mg/kg/injection, schedule: Q01DX009 (ip), vehicle: saline with Tween-80 89 % of control

CNc1ccccc1Cc1ccccc1
inactive: [6] 103 % of control | [9] 90 % of control | [10] 99 % of control

C#CCN(C)/N=N/c1nc[nH]c1C(N)=O
inactive: [7] 97 % of control | [8] 111 % of control | [12] 124 % of control
